Data from patent US3953293A, “Process for the preparation of xylostasin” (Takeda Chemical Industries, Ltd., priority 1972, dated 1976).
Values after ≈ are worked out from the molar mass of the structure shown.

Experiments:
[1] = Acute toxicity by intravenous injection into mice; details: mouse, in vivo, free base
Method: The acute toxicity of xylostasin was examined by intravenous injection into mice. The LD50 value for the free base was approximately 1,000 mg/kg.

[2] = test system: Mycobacterium smegmatis IFO 3083; experiment: Minimal inhibitory concentration by the agar dilution method; format: cell-based; details: Mycolicibacterium smegmatis, IFO3083, glycerin bouillon agar
From the text: (§1) Minimal inhibitory concentrations by the
(§2) The media used for the test are bouillon agar for the common bacteria and glycerin bouillon agar for acid fast bacteria.

[3] = test system: Proteus vulgaris IFO 3045; experiment: as above; format: cell-based; details: IFO3045, bouillon agar
From the text: as §1, §2

[4] = test system: Mycobacterium avium (Streptomycin-resistant); experiment: as above; format: cell-based; details: read-out: Minimal inhibitory concentration
From the text: as §1, §2

[5] = test system: Mycobacterium phlei IFO 3158; experiment: as above; format: cell-based; details: Mycolicibacterium phlei, IFO3158, glycerin bouillon agar
From the text: as §1, §2

[6] = test system: Escherichia coli IFO 3044; experiment: as above; format: cell-based; details: IFO3044, bouillon agar
From the text: as §1, §2

[7] = test system: Pseudomonas aeruginosa IFO 3080; experiment: as above; format: cell-based; details: IFO3080, bouillon agar
From the text: as §1, §2

[8] = test system: Mycobacterium avium IFO 3153; experiment: as above; format: cell-based; details: IFO3153, glycerin bouillon agar
From the text: as §1, §2

[9] = test system: Mycobacterium avium (Neomycin-resistant); experiment: as above; format: cell-based; details: read-out: Minimal inhibitory concentration
From the text: as §1, §2

Bacillus cereus IFO 3466 = experiment: as above; format: cell-based; details: IFO3466, bouillon agar
From the text: as §1, §2

[10] = test system: Bacillus subtilis PCI 219; experiment: as above; format: cell-based; details: PCI219, bouillon agar
From the text: as §1, §2

Sarcina lutea IFO 3232 = experiment: as above; format: cell-based; details: Micrococcus luteus, IFO3232, bouillon agar
From the text: as §1, §2

Shigella flexneri EW-10 = experiment: as above; format: cell-based; details: EW10, bouillon agar
From the text: as §1, §2

[11] = test system: Staphylococcus aureus FDA 209P; experiment: as above; format: cell-based; details: FDA209P, bouillon agar
From the text: as §1, §2

Bacillus brevis IFO 3331 = experiment: as above; format: cell-based; details: Brevibacillus brevis, IFO3331, bouillon agar
From the text: as §1, §2

Escherichia coli 0-111 = experiment: Anti-infection test in mice; format: in vivo; details: mice infected with Escherichia coli 0-111; single subcutaneous dose of 10 mg/kg immediately after infection

## NC[C@H]1O[C@H](O[C@H]2[C@H](O[C@@H]3O[C@H](CO)[C@H](O)[C@H]3O)[C@@H](O)[C@H](N)C[C@@H]2N)[C@H](N)[C@@H](O)[C@@H]1O [xylostasin, O-β-D-xylofuranosyl-(1 → 5)-O-[α-2,6-diamino-2,6-dideoxy-D-glucopyranosyl-(1 → 4)]-2-deoxystreptamine]
[1]
  LD50: ~1000 mg/kg
[2]
  MIC: 1.6 µg/mL (≈ 3.52 µM)
[3]
  MIC: 50 µg/mL (≈ 110 µM)
[4]
  MIC: 3.12 µg/mL (≈ 6.88 µM)
[5]
  MIC: 1.6 µg/mL (≈ 3.52 µM)
[6]
  MIC: 6.25 µg/mL (≈ 13.8 µM)
[7]
  MIC: > 50 µg/mL
[8]
  MIC: 1.6 µg/mL (≈ 3.52 µM)
[9]
  MIC: > 50 µg/mL
Bacillus cereus IFO 3466
  MIC: 50 µg/mL (≈ 110 µM)
[10]
  MIC: 3.12 µg/mL (≈ 6.88 µM)
Sarcina lutea IFO 3232
  MIC: 25 µg/mL (≈ 55 µM)
Shigella flexneri EW-10
  MIC: 12.5 µg/mL (≈ 27.5 µM)
[11]
  MIC: 6.25 µg/mL (≈ 13.8 µM)
Bacillus brevis IFO 3331
  MIC: 25 µg/mL (≈ 55 µM)
Escherichia coli 0-111
  death of the mice: completely prevented
